Results as given in US7700654B2 (LTS Lohmann Therapie-Systeme AG, priority 2005, dated 2010).

What was measured:
[1] = target: T1, human androgen receptor (hAR) (Homo sapiens, UniProt P10275); experiment: reporter gene-based (MMTV-luc luciferase) test for antiandrogenic activity in transfected CV1 cells; type: cell-based; details: compounds at 10 μM; high R1881 concentration 3×10^−8 M
T1 construct: expressed in transfected cells; host or cells: CV1 monkey kidney cells (lacking endogenous androgen receptor)
T1 sequence (P10275 1-920): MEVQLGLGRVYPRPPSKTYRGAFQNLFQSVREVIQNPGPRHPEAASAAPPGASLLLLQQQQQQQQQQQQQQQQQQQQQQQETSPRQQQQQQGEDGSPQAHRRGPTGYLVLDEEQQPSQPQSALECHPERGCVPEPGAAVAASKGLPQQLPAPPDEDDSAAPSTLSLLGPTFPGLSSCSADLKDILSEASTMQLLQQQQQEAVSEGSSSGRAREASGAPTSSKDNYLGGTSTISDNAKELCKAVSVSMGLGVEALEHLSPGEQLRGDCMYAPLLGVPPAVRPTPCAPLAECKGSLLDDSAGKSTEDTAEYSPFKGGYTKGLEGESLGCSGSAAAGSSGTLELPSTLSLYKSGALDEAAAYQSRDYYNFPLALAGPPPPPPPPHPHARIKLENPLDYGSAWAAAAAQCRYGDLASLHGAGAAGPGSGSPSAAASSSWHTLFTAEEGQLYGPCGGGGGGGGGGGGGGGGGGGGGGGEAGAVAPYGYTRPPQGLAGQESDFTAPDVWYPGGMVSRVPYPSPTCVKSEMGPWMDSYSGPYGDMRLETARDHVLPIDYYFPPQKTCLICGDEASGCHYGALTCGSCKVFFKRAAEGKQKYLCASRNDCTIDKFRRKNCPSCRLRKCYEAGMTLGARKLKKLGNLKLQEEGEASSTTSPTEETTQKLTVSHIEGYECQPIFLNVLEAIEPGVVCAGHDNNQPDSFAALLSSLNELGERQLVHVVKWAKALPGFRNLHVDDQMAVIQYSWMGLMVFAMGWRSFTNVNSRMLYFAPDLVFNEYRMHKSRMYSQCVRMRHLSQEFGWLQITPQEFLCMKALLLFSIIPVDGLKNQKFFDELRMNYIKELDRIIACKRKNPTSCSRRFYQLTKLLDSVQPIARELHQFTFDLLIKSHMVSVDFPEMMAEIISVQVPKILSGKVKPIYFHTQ
Protocol: Monkey kidney cells, line CV1, lacking endogenous androgen receptor were cultured in Dulbecco's modified Eagle's medium (DMEM), supplemented with 10% (v/v) fetal calf serum, penicillin (100 IU/ml) and streptomycin (100 IU/ml) at 37° C. and 5% CO2.
For the transfection experiments, cells were seeded onto 6-well tissue culture plates (Nunc, Roskilde, Denmark) with a density of 1.2×10^5 cells per well and grown in DMEM medium supplemented with 10% (v/v) dextran-coated activated charcoal stripped serum. Six hours after seeding, the cells were transfected by using the Ca3(PO4)2 method. The human androgen receptor (hAR) expression vector (0.2 μg) was cotransfected with 1 μg of the reporter plasmid MMTV-luc and 0.2 μg of the cytomegalovirus (CMV)-driven β-galactosidase expression […], as internal control for transfection efficiency. After 14 hours, the medium was replaced either without (white bars in FIGS. […] 1), fractions (FIG. 2) or substances (FIG. 3). After an additional 48 hours, cells were harvested and assayed for luciferase and β-galactosidase activity.
Luciferase activity was determined by injecting luciferin and measuring light emission at 562 nm and expressed as relative light units (RLU) by using the values of β-galactosidase activity for normalisation of the luciferase activity. All transfection assays shown were performed in duplicate and were repeated at least twice.
For determining antiandrogenic activity in the various extracts from the bark of P. africanum, the extracts were used at a concentration of 300 μg/ml.
For determining the antiandrogenic activity in the fractions of the selective methylene chloride extracts, 2 μl of the respective fraction was used, corresponding to a final concentration of 30 μg/ml. Fractions F6 to F10 were additionally tested with 4 μl, corresponding to 60 μg/ml final concentration.

[2] = cited from earlier work
[3] = environment; cited from earlier work
LNCaP cells = experiment: growth inhibition of human prostate carcinoma cells (cell counting); type: cell-based; details: 0.1 μM OH—F
Source text: The growth of prostate cells and prostate cancer cells is originally dependent on androgens.
The cells were trypsinized and counted using a counting cell chamber on the indicated days.

| SMILES | inhibition of the AR-mediated transactivation, compared with NBBS (FIG. 6) [1] | further results |
| --- | --- | --- |
| CC(C)=CCC/C(C)=C/CNS(=O)(=O)c1cccc(C(F)(F)F)c1 [S11, N-[(2E)-3,7-dimethylocta-2,6-diene-1-yl]-3-(tri-fluoromethyl)benzenesulfonamide] | enhanced antiandrogenic activity |  |
| CCCCNS(=O)(=O)c1cccc(C(F)(F)F)c1 [S10, N-Butyl-3-(trifluoromethyl)benzenesulfonamide] | enhanced antiandrogenic activity |  |
| CCCCNS(=O)(=O)c1ccccc1 [NBBS, N-butylbenzenesulfonamide] |  | solubility in alcohols and benzene ([2]; alcohols and benzene): moderate solubility; solubility in water ([2]; water): practically insoluble; stability [3]: very stable |
| CCCCCCCCCCCCNS(=O)(=O)c1ccccc1 [S12, N-Dodecylbenzenesulfonamide] | weakened the androgen antagonistic potency | melting point: 59 to 61 °C |
| CCCCCNS(=O)(=O)c1ccccc1 [S9, N-Pentylbenzenesulfonamide] | enhanced the antiandrogenic activity |  |
| CC(C)=CCC/C(C)=C/CNS(=O)(=O)c1ccccc1 [S4, N-[(2E)-3,7-Dimethylocta-2,6-diene-1-yl]benzenesulfonamide] | enhanced the antiandrogenic activity |  |
| CC(C)=CCC/C(C)=C/CNS(=O)(=O)c1ccc([N+](=O)[O-])c(C(F)(F)F)c1 [S14, N-[(2E)-3,7-Dimethylocta-2,6-diene-1-yl]-4-nitro-3-(trifluoromethyl)-benzenesulfonamide] | enhanced antiandrogenic activity |  |
| CC(C)(O)C(=O)Nc1ccc([N+](=O)[O-])c(C(F)(F)F)c1 [OH—F, hydroxyflutamide] |  | proliferation of LNCaP cells (FIG. 4) (LNCaP cells): did not lead to reduction in cell proliferation |
| CCCCNS(=O)(=O)c1ccc([N+](=O)[O-])c(C(F)(F)F)c1 [S13, N-Butyl-4-nitro-3-(trifluoromethyl)benzenesulfonamide] | enhanced antiandrogenic activity |  |
